The source made the active and inactive calls. The rule behind the calls is not given here. *1 amine or outer side, *2 acyl side, *3 side chain or, on linkers, in order; H or OH if unused. Where a SMILES comes first, the peptide text is derived from it. Bridges are numbered along the chain shown (N, C = ends). [ ]: non-standard residue; d: D form. X3 = O=C(O)CCCCCCCCCCCCCCCCC(=O)NC(CCC(=O)NCCOCCOCC(=O)NCCCCCCNC(=O)C(CCCCNC(=O)CCN1C(=O)CC([*:1])C1=O)NC(=O)CCN1C(=O)CC([*:2])C1=O)C(=O)O; sY = N[C@@H](Cc1ccc(OS(=O)(=O)O)cc1)C(=O)O; AEEA = NCCOCCOCC(=O)O; Aib = CC(C)(N)C(=O)O

Broadly, the EC50 is the concentration giving half of the maximal effect.

For experiment [1], the target named is Glucagon-like peptide 1 receptor (Homo sapiens, UniProt P43220). Description: Agonist activity at human GLP-1R expressed in HEK293 cells assessed as stimulation of cAMP accumulation incubated for 20 mins. The experiment is classed as functional, cell-based. In general terms: Changes in cAMP serve as a functional read-out for many G protein-coupled receptors.

Experiment [2] has as its target T1, Cholecystokinin receptor type A (Homo sapiens, UniProt P32238).
T1 sequence (P32238 whole entry): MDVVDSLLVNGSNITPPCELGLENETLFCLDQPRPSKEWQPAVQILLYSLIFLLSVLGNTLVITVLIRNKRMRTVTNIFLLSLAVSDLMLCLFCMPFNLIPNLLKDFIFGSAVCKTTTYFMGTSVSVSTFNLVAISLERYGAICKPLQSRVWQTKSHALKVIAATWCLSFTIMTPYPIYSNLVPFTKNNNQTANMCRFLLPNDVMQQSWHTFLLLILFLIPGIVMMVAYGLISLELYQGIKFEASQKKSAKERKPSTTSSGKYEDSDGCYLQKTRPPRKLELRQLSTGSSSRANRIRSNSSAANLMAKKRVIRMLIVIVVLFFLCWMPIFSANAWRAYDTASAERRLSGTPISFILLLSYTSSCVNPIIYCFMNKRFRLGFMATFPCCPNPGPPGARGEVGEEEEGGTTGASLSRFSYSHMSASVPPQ
Briefly: Agonist activity at human CCK-1R expressed in HEK293 cells assessed as stimulation of ERK phosphorylation incubated for 5 mins. The class given is cell-based.

Experiment [3] has as its target T2, Gastrin/cholecystokinin type B receptor (Homo sapiens, UniProt P32239).
T2 sequence (P32239 whole entry): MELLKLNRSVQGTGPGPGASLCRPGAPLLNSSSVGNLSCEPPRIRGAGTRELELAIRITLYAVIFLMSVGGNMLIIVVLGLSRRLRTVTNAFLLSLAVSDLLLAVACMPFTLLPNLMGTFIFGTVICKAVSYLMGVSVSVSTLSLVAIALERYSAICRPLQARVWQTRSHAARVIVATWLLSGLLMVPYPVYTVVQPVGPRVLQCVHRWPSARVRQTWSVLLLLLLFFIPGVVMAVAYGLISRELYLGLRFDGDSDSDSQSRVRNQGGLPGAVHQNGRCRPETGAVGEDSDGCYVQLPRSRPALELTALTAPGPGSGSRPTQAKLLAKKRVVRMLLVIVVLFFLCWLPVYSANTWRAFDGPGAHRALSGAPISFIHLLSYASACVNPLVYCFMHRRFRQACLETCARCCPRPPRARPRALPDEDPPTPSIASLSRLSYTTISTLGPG
Briefly: Agonist activity at human CCK-2R expressed in HEK293 cells assessed as stimulation of ERK phosphorylation incubated for 5 mins. The class given is cell-based.

Experiment [4] deals with Mus musculus. Briefly: Hypoglycemic activity in ICR mouse assessed as decrease in blood glucose concentration at 25 nmol/kg, ip dosed 15 mins before test and measured up to 120 mins by OGTT method. The class given is functional, organism-based.

Chain of Glucagon-like peptide 1 receptor (P43220 whole entry): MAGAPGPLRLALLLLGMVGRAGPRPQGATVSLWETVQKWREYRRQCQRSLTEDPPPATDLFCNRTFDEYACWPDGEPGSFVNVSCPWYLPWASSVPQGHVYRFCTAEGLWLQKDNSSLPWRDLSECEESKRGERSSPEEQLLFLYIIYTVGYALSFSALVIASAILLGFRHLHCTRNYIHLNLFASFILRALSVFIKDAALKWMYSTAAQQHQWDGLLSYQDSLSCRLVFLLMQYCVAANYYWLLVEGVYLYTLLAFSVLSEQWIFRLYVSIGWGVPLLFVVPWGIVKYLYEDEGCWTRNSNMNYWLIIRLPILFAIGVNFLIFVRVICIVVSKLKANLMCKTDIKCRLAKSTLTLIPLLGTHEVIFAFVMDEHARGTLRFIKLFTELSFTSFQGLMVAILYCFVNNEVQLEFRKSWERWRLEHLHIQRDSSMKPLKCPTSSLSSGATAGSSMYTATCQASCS

Turning to `CC[C@H](C)[C@H](NC(=O)[C@H](CC(C)C)NC(=O)[C@H](Cc1c[nH]c2ccccc12)NC(=O)[C@H](CCC(=O)O)NC(=O)[C@@H](NC(=O)[C@H](Cc1ccccc1)NC(=O)[C@@H]1CSC2CC(=O)N(CCC(=O)NC(C(=O)NCCCCCCNC(=O)COCCOCCNC(=O)CCC(NC(=O)CCCCCCCCCCCCCCCCC(=O)O)C(=O)O)CCCCNC(=O)CCN3C(=O)CC(SC[C@H](NC(=O)[C@H](Cc4ccc(O)cc4)NC(=O)[C@H](CCC(=O)O)NC(=O)[C@@H](NC(=O)[C@@H](NC(=O)[C@H](CC(=O)O)NC(=O)[C@H](CC(N)=O)NC(=O)[C@@H](NC(=O)[C@H](Cc4ccc(O)cc4)NC(=O)[C@@H](NC(=O)CNC(=O)[C@H](CCC(=O)O)NC(=O)C(C)(C)NC(=O)[C@@H](N)Cc4c[nH]cn4)[C@@H](C)O)[C@@H](C)O)C(C)C)[C@@H](C)O)C(=O)N[C@@H](CCC(=O)O)C(=O)N[C@@H](CCC(=O)O)C(=O)N[C@@H](CCC(=O)O)C(=O)N[C@@H](C)C(=O)N[C@@H](C)C(=O)N[C@@H](CCCCN)C(=O)N1)C3=O)C2=O)[C@@H](C)CC)C(=O)N[C@@H](CCCCN)C(=O)NCC(=O)N[C@@H](CCCCN)C(=O)NCCOCCOCC(=O)NCCOCCOCC(=O)N[C@@H](Cc1ccc(O)cc1)C(=O)NCC(=O)N[C@@H](Cc1c[nH]c2ccccc12)C(=O)N[C@@H](CC(C)C)C(=O)N[C@@H](CC(=O)O)C(=O)N[C@@H](Cc1ccccc1)C(N)=O` (some centres undefined) (H-H[Aib]EGTYTNDVTEYCEEEAAKCFIEWLIKGK[AEEA][AEEA]YGWLDF-NH2; linker 14-21 via X3), the figures for the EC50 in experiment [1], in experiment [2] and in experiment [3] were 0.055 nM, greater than 1000 nM and 15.2 nM, respectively.
On the same counts, the results for `CC[C@H](C)[C@@H]1NC(=O)[C@H](CC(C)C)NC(=O)[C@H](Cc2c[nH]c3ccccc23)NC(=O)[C@H](CCC(=O)O)NC(=O)[C@H]([C@@H](C)CC)NC(=O)[C@H](Cc2ccccc2)NC(=O)[C@@H](NC(=O)[C@H](CCCCN)NC(=O)[C@H](C)NC(=O)[C@H](C)NC(=O)[C@H](CCC(=O)O)NC(=O)[C@H](CCC(=O)O)NC(=O)[C@H](CCC(=O)O)NC(=O)[C@H](CC(C)C)NC(=O)[C@H](Cc2ccc(O)cc2)NC(=O)[C@H](CCC(=O)O)NC(=O)[C@@H](NC(=O)[C@@H](NC(=O)[C@H](CC(=O)O)NC(=O)[C@H](CC(N)=O)NC(=O)[C@@H](NC(=O)[C@H](Cc2ccc(O)cc2)NC(=O)[C@@H](NC(=O)CNC(=O)[C@H](CCC(=O)O)NC(=O)C(C)(C)NC(=O)[C@@H](N)Cc2c[nH]cn2)[C@@H](C)O)[C@@H](C)O)C(C)C)[C@@H](C)O)CSC2CC(=O)N(CCC(=O)NCCCCC(C(=O)NCCCCCCNC(=O)COCCOCCNC(=O)CCC(NC(=O)CCCCCCCCCCCCCCCCC(=O)O)C(=O)O)NC(=O)CCN3C(=O)CC(SC[C@@H](C(=O)NCC(=O)N[C@@H](CCCCN)C(=O)NCCOCCOCC(=O)NCCOCCOCC(=O)N[C@@H](Cc4ccc(O)cc4)C(=O)NCC(=O)N[C@@H](Cc4c[nH]c5ccccc45)C(=O)N[C@@H](CC(C)C)C(=O)N[C@@H](CC(=O)O)C(=O)N[C@@H](Cc4ccccc4)C(N)=O)NC1=O)C3=O)C2=O` (some centres undefined) (H-H[Aib]EGTYTNDVTEYLEEEAAKCFIEWLICGK[AEEA][AEEA]YGWLDF-NH2; linker 21-28 via X3) are 0.061 nM, greater than 1000 nM and 17.5 nM.
On to `CC[C@H](C)[C@H](NC(=O)[C@H](CC(C)C)NC(=O)[C@H](Cc1c[nH]c2ccccc12)NC(=O)[C@H](CCC(=O)O)NC(=O)[C@@H](NC(=O)[C@H](Cc1ccccc1)NC(=O)[C@H](CS)NC(=O)[C@H](CCCCN)NC(=O)[C@H](C)NC(=O)[C@H](C)NC(=O)[C@H](CCC(=O)O)NC(=O)[C@H](CCC(=O)O)NC(=O)[C@H](CCC(=O)O)NC(=O)[C@H](CC(C)C)NC(=O)[C@H](Cc1ccc(O)cc1)NC(=O)[C@H](CCC(=O)O)NC(=O)[C@@H](NC(=O)[C@@H](NC(=O)[C@H](CC(=O)O)NC(=O)[C@H](CC(N)=O)NC(=O)[C@@H](NC(=O)[C@H](Cc1ccc(O)cc1)NC(=O)[C@@H](NC(=O)CNC(=O)[C@H](CCC(=O)O)NC(=O)C(C)(C)NC(=O)[C@@H](N)Cc1c[nH]cn1)[C@@H](C)O)[C@@H](C)O)C(C)C)[C@@H](C)O)[C@@H](C)CC)C(=O)N[C@@H](CS)C(=O)NCC(=O)N[C@@H](CCCCN)C(=O)N1CCC[C@H]1C(=O)N[C@@H](CO)C(=O)N[C@@H](CO)C(=O)NCC(=O)N[C@@H](C)C(=O)N1CCC[C@H]1C(=O)N1CCC[C@H]1C(=O)N1CCC[C@H]1C(=O)N[C@@H](CO)C(N)=O` (HELM PEPTIDE1{H.[Aib].E.G.T.Y.T.N.D.V.T.E.Y.L.E.E.E.A.A.K.C.F.I.E.W.L.I.C.G.K.P.S.S.G.A.P.P.P.S.[am]}$$$$V2.0), for which the EC50 in experiment [1] was determined as 0.052 nM. In experiment [4], the result was Active.
Turning to `CC[C@H](C)[C@H](NC(=O)[C@H](CC(C)C)NC(=O)[C@H](Cc1c[nH]c2ccccc12)NC(=O)[C@H](CCC(=O)O)NC(=O)[C@@H](NC(=O)[C@H](Cc1ccccc1)NC(=O)[C@H](CS)NC(=O)[C@H](CCCCN)NC(=O)[C@H](C)NC(=O)[C@H](C)NC(=O)[C@H](CCC(=O)O)NC(=O)[C@H](CCC(=O)O)NC(=O)[C@H](CCC(=O)O)NC(=O)[C@H](CC(C)C)NC(=O)[C@H](Cc1ccc(O)cc1)NC(=O)[C@H](CCC(=O)O)NC(=O)[C@@H](NC(=O)[C@@H](NC(=O)[C@H](CC(=O)O)NC(=O)[C@H](CC(N)=O)NC(=O)[C@@H](NC(=O)[C@H](Cc1ccc(O)cc1)NC(=O)[C@@H](NC(=O)CNC(=O)[C@H](CCC(=O)O)NC(=O)C(C)(C)NC(=O)[C@@H](N)Cc1c[nH]cn1)[C@@H](C)O)[C@@H](C)O)C(C)C)[C@@H](C)O)[C@@H](C)CC)C(=O)N[C@@H](CS)C(=O)NCC(=O)N[C@@H](CCCCN)C(N)=O` (HELM PEPTIDE1{H.[Aib].E.G.T.Y.T.N.D.V.T.E.Y.L.E.E.E.A.A.K.C.F.I.E.W.L.I.C.G.K.[am]}$$$$V2.0), in experiment [1], the EC50 was determined as 0.083 nM. The outcome in experiment [4] was Active.
Consider H-HGEGTYTNDVTEYLEEEAAKEFIEWLIKGK-NH2, for which the half-maximal effective concentration (EC50) in experiment [1] was 0.048 nM. Besides, in experiment [4], the result was Active.
For the compound “H-HGEGTYTNDVTEYLEEEAAKEFIEWLIKGKPSSGAPPPS-NH2”, the EC50 in experiment [1] was 0.034 nM; in experiment [2], greater than 1000 nM; in experiment [3], greater than 1000 nM. The outcome in experiment [4] was Active.
Take “H-HGEGTYTNDVTEYLEEEAAKEFIEWLIKGKPSSGAPPSKKKKKK-NH2”: the EC50 in experiment [1] worked out at 0.024 nM. In experiment [4], the result was Active.
For “H-H[Aib]EGTYTNDVTEYCEEEAAKCFIEWLIKGKPSSGAPPPS[AEEA][AEEA]YGWLDF-NH2 (cysteines drawn unpaired)”, the EC50 is 0.04 nM in experiment [1], greater than 1000 nM in experiment [2] and 8.3 nM in experiment [3].
For “H-H[Aib]EGTYTNDVTEYCEEEAAKCFIEWLIKGKPSSGAPPPS[AEEA][AEEA][sY]GWMDF-NH2 (cysteines drawn unpaired)”, the EC50 in experiment [1] is 0.038 nM; in experiment [2], greater than 1000 nM; in experiment [3], 7.6 nM.
“H-H[Aib]EGTYTNDVTEYCEEEAAKCFIEWLIKGKPSSGAPPSKKKKKK-NH2 (cysteines drawn unpaired)”: the EC50 in experiment [1] was determined as 0.028 nM. Besides, the result in experiment [4] was Active.
On to “H-H[Aib]EGTYTNDVTEYLEEEAAKCFIEWLICGKPSSGAPPPS[AEEA][AEEA]YGWLDF-NH2 (cysteines drawn unpaired)”, for which the EC50 in experiment [1] is 0.048 nM; in experiment [2] it was greater than 1000 nM; in experiment [3], 9.4 nM.
With “H-H[Aib]EGTYTNDVTEYLEEEAAKCFIEWLICGKPSSGAPPPS[AEEA][AEEA][sY]GWMDF-NH2 (cysteines drawn unpaired)”, the EC50 in experiment [1] is 0.059 nM; in experiment [2], greater than 1000 nM; in experiment [3], 8.2 nM.
With “H-H[Aib]EGTYTNDVTEYLEEEAAKCFIEWLICGKPSSGAPPSKKKKKK-NH2 (cysteines drawn unpaired)”, the EC50 in experiment [1] is 0.036 nM. Moreover, in experiment [4], the outcome was Active.
